The text below walks through data of patent publication US20120172401A1, “BENZIMIDAZOLE DERIVATIVE AND USE AS ANGIOTENSIN II ANTAGONIST” (Takeda Pharmaceutical Company Limited, priority 2005, published 2012).

One data set relates to insulin sensitivity. Description: Enhancing effect on insulin sensitivity in rat (glucose clamp technique). The data set is classed as in vivo. The following applies: spontaneously hypertensive rats, p.o. for 2 weeks, average glucose injection rate 50-90 min, mean±SEM. The protocol: 24-Week-old male spontaneously hypertensive rats (SLC: SHR/Izm, Japan SLC, Inc.) were used. The body weight, systolic blood pressure, fasting blood glucose level, plasma insulin level and plasma triglyceride level of the rats were measured, and the rats were divided into a vehicle (0.5% methylcellulose solution) administration group and compound (I) (0.12, 0.37 and 1.23 mg/kg) administration groups using them as indices. Compound (I) was suspended in 0.5% methylcellulose solution and orally administered at a volume of 2 mL/kg for 2 weeks.
The insulin sensitivity was evaluated by the glucose clamp technique. To be specific, the rats after fasting overnight were anesthetized with pentobarbital sodium (Nembutal injection, Dainippon Pharmaceutical Co. Ltd., 50 mg/kg i.p.), and catheters (SP45, Natume Seisakusho Co., Ltd.) for blood sampling, insulin (novolin R/100, Novo Nordisk Pharma Co., Ltd.) infusion and glucose (Otsuka Glucose Injection 50%, Otsuka Pharmaceutical Co., Ltd.) infusion were each placed in the right common carotid artery, left femoral vein and right femoral vein. After single intravenous injection of 25 mU/kg of insulin, high insulin state was maintained by infusion using an infusion pump (KDS100, KDS) at an injection rate of 4 mU/kg/min. In addition, glucose in an amount necessary for maintaining the normal blood glucose level was intravenously infused using a different infusion pump (KDS100, KDS). Intravenous injection of glucose was started from 10 min after the start of the injection of insulin, and the glucose injection rate was changed after blood glucose measurement performed every 5 min. The blood glucose level then was quickly measured using a simple blood glucose measurement apparatus (ACCU-CHEK Comfort, Roche diagnostics). Glucose was infused for 90 min., the average value of the glucose injection rate was calculated for 40 min (from 50 min. to 90 min. after the start of the injection) and used as an index (M value) of insulin sensitivity.
The results are shown as mean±SEM (Table 7). […]

Data set [1] relates to Angiotensin II (AII)-induced vasopressor action. Nature of the data set: Inhibitory effect on angiotensin II (AII)-induced vasopressor action in rat. It counts as in vivo. The following applies: male SD rats, AII 100 ng/kg i.v., p.o., mean±SEM. On the procedure: 11-Week-old male SD rats (JCL: SD, CLEA Japan, Inc.) were anesthetized with pentobarbital (50 mg/kg, i.p.), the femoral artery and femoral vein were isolated, and a polyethylene tube filled with physiological saline containing heparin (200 U/mL) was placed therein. The catheter was subcutaneously fixed in the back of the neck. After recovery period, the rats were subjected to the test.
The arterial catheter was connected to a pressure transducer (2238, NEC San-ei Instruments) and the signals were output on a pen recorder (RECTI-HORIZ 8K, NEC San-ei Instruments) via an amplifier for blood pressure. After the vasopressor action of AII (100 ng/kg, i.v.) was stabilized, a test compound in an equimolar dose to compound A was administered. After 24 hrs, AII was administered, an increase in the blood pressure was measured, and an inhibition rate relative to the value before drug administration was calculated. All compounds were suspended in 0.5% methylcellulose and orally administered at a volume of 2 mL/kg.
The results are shown as mean±SEM (Table 6). The significance between the compound (I) administration group and other compound administration group was determined by the Student's t test (**: p<0.01, *: p<0.05).

The nature of data set [2]: Membrane permeability by Parallel Artificial Membrane Permeability Assay (PAMPA). To be noted: for Papp at 3 h, 50 gmol/L: PAMPA; for permeability in comparison with compound X: in words. It counts as in vitro ADME. The protocol: The permeability with the artificial membrane was determined by PAMPA under the following conditions. • lipid membrane: GIT mode (pION) • measurement wavelength: 250-400 nm • incubation time: 3 hrs • incubation temperature: 25° C. • Donor: […] 50 gmol/L

Data set [3] in a line: Solubility in JP1, JP2 and GCDC/JP2. It counts as physicochemical. The following applies: for solubility in comparison with compound X: in words; for solubility at 2 h: thermodynamic from solid, 37° C. On the procedure: About 2 mg of samples were suspended in 2 mL of JP1, JP2 and 20 mmol/L GCDC/JP2. The suspension was equilibrated at 37° C. for 2 hrs and filtered. The concentration in the solutions was determined by HPLC under the following conditions.
• Detector: UV 254 nm • Column: CAPCELLPAK C18 MG 75×4.6 mm • Mobile Phase A: 0.05 mol/L ammonium formate buffer (pH 3)/MeCN=9:1 • Mobile Phase B: 0.05 mol/L ammonium formate buffer (pH 3)/MeCN=1:9 • Gradient Program: 0→10 min 0→100% B) • 10→15 min 100% B) • 15.1→20 min 0% B) • Column Temp.: 40° C. • Flow Rate: 1 mL/min • Injection vol.: 10 gL

Data set [4] is described as follows: Heat stability of Form A crystal. The data set is classed as physicochemical. The following applies: in words.
Where [5] appears, read: pH 5.5, GIT mode lipid membrane, 3 hrs, 25° C., read-out: PAMPA pH 5.5.
Setting [6] is: pH 6.2, GIT mode lipid membrane, 3 hrs, 25° C., read-out: PAMPA PH 6.2.
Setting [7] is: pH 1.2, simulated gastric fluid, JP1, read-out: Solubility JP1.
The mark [8] stands for this setting: pH 6.8, fassgf or other biorelevant, 20 mmol/L GCDC/JP2, read-out: Solubility GCDC/JP2.
[9] abbreviates: pH 6.8, fassgf or other biorelevant, JP2, read-out: Solubility JP2.
The mark [10] stands for this setting: pH 7.4, GIT mode lipid membrane, 3 hrs, 25° C., read-out: PAMPA PH 7.4.

In brackets after ≈: the same amount, converted by molar mass. Like-named read-outs stand apart in the source and are kept apart here.

For the compound `Cc1oc(=O)oc1COC(=O)c1cccc2nc(C3CC3)n(Cc3ccc(-c4ccccc4-c4noc(=O)[nH]4)cc3)c12` [Compound (I), (5-Methyl-2-oxo-1,3-dioxol-4-yl)methyl 2-cyclopropyl-1-{[2′-(5-oxo-4,5-dihydro-1,2,4-oxadiazol-3-yl)biphenyl-4-yl]methyl}-1H-benzimidazole-7-carboxylate], the M value in the data set with insulin sensitivity (0.12 mg/kg) is given as 8.2; in the data set on insulin sensitivity (0.37 mg/kg), 9.0; in the data set on insulin sensitivity (1.23 mg/kg), 9.8. The “suppression rate at 24 hrs after administration” value (shortened to “suppression rate at 24 hrs”) in data set [1] (0.12 mg/kg) is on record as 20.2%.

Turning to `O=C(O)c1cccc2nc(C3CC3)n(Cc3ccc(-c4ccccc4-c4noc(=O)[nH]4)cc3)c12` [Compound A, 2-cyclopropyl-1-{[2′-(5-oxo-4,5-dihydro-1,2,4-oxadiazol-3-yl)biphenyl-4-yl]methyl}-1H-benzimidazole-7-carboxylic acid], the Papp at 3 h, 50 gmol/L in data set [2] (setting [5]) came out at 13 ×10⁻⁶ cm/s; in data set [2] (setting [6]), 0.63 ×10⁻⁶ cm/s. The “permeability in comparison with compound X” value in data set [2] is given as “less permeable”. Besides, the “PAMPA PH 7.4” value in data set [2] (pH 7.4, GIT mode lipid membrane, 3 hrs, 25° C.) was found to be 0 ×10⁻⁶ cm/s. Moreover, in data set [1] (0.10 mg/kg), the “suppression rate at 24 hrs” value is reported as −6.0%. Also, the “solubility in comparison with compound X” value in data set [3] is reported as “soluble”. The values for the solubility at 2 h in data set [3] (setting [7]), in data set [3] (setting [8]) and in data set [3] (setting [9]) were 130 µg/mL (≈ 287 µM), 680 µg/mL (≈ 1500 µM) and 470 µg/mL (≈ 1040 µM), respectively.

As to `COC(=O)c1cccc2nc(C3CC3)n(Cc3ccc(-c4ccccc4-c4noc(=O)[nH]4)cc3)c12` [Compound B, methyl 2-cyclopropyl-1-{[2′-(5-oxo-4,5-dihydro-1,2,4-oxadiazol-3-yl)biphenyl-4-yl]methyl}-1H-benzimidazole-7-carboxylate], the values for the Papp at 3 h, 50 gmol/L in data set [2] (setting [5]), in data set [2] (setting [6]) and in data set [2] (setting [10]) were 46 ×10⁻⁶ cm/s, 20 ×10⁻⁶ cm/s and 8.9 ×10⁻⁶ cm/s, respectively. Besides, the “permeability in comparison with compound X” value in data set [2] was “permeable”. Further, the “suppression rate at 24 hrs” value in data set [1] (0.10 mg/kg) is reported as 2.6%. Also, in data set [3], the “solubility in comparison with compound X” value was “less soluble”. The solubility at 2 h in data set [3] (setting [7]) was 160 µg/mL (≈ 343 µM); in data set [3] (setting [8]), 27 µg/mL (≈ 57.9 µM); in data set [3] (setting [9]), 2.8 µg/mL (≈ 6 µM).

Take `Cc1oc(=O)oc1COC(=O)c1cccc2nc(C3CC3)n(Cc3ccc(-c4ccccc4-c4noc(=O)[nH]4)cc3)c12` [Compound X, crystal of (5-methyl-2-oxo-1,3-dioxol-4-yl)methyl 2-cyclopropyl-1-{[2′-(5-oxo-4,5-dihydro-1,2,4-oxadiazol-3-yl)biphenyl-4-yl]methyl}-1H-benzimidazole-7-carboxylate]: the Papp at 3 h, 50 gmol/L in data set [2] (setting [5]) amounted to 21 ×10⁻⁶ cm/s; in data set [2] (setting [6]) it was 19 ×10⁻⁶ cm/s; in data set [2] (setting [10]) it was 9.5 ×10⁻⁶ cm/s. Besides, the stability to heat result in data set [4] was “stable to heat”. Moreover, the solubility at 2 h in data set [3] (setting [7]) is 27 µg/mL (≈ 47.8 µM); in data set [3] (setting [8]), 52 µg/mL (≈ 92.1 µM); in data set [3] (setting [9]), 8.3 µg/mL (≈ 14.7 µM).
